From patent publication US20240287070A1, “FUSED HETEROCYCLIC DERIVATIVES” (Janssen Sciences Ireland Unlimited Company, priority 2021, published 2024) come the findings set out here.

Data set [1] relates to HBV (HepG2.117 cell line, inducibly HBV producing). Kind of data set: Anti-HBV activity, intracellular HBV DNA by real-time PCR in HepG2.117 cell line. In kind it is cell-based, hepatitis B virus. The conditions noted are these: HepG2.117 cells, 3 days of treatment. The method, boiled down: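 Readout is intracellular HBV DNA, measured by real-time PCR with HBV-specific primers and probe after 3 days of exposure to serial compound dilutions. Cells are the stable HepG2.117 line, where HBV replication is induced in the absence of doxycycline.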
(In qPCR the cycle at which signal appears reflects the starting amount.)

Data set [2] can be described thus: Cytotoxicity, ATPlite Luminescence Assay. It is filed as cell-based, human. The conditions noted are these: human, HepG2 or HepG2.117 cells, 3-days incubation unless marked with *. In a few lines:
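Compounds were added to cells and incubated 3 or 4 days. ATP content was then measured by luminescence to gauge cell viability.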
Background: In ATP-based viability assays light output follows the ATP content of the culture.

Data set [3] is described as follows: Human liver microsome stability. In kind it is in vitro ADME. The conditions noted are these: 1 μM compound, NADPH 1 mM, 37° C., 0-60 min; for half-life at 1 μM: human, pooled human liver microsomes, pH 7.4, pooled human liver microsomes 0.5 mg/mL, read-out: HLM Metabolism t1/2; for HLM Metabolism t1/2: pooled human liver microsomes 0.5 mg/mL. In a few lines:
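Half-life came from elimination rate constant (negative slope of ln compound/internal standard area ratio over time), measured by cassette LC-MS after acetonitrile quench. Human liver microsome reactions, one replicate per compound, were initiated with NADPH (1 mM final) and sampled at six points up to 60 min.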

Setting [4] is: Hepatitis B virus, HepG2.117, 72 h.

A value given as a limit tells only on which side of the number the result lay.

For orientation: EC50 means the midpoint of the concentration-response curve. High values mean lower potency in that assay, low ones higher potency in that assay. In general, CC50 refers to the concentration that lowers cell viability or growth by half. The low end stands for greater toxicity to the cells, the high end for lower toxicity to the cells. In data set [1], `CC(c1ccnc(Cl)c1)N1C[C@@H](C)n2nc3c(c2C1=O)CN(C(=O)c1ccc(Cl)c(Cl)c1)[C@H](C)C3` (single isomer, unassigned) [Compound 31A, (3R,7R)-9-((R*)-1-(2-chloropyridin-4-yl)ethyl)-2-(3,4-dichlorobenzoyl)-3,7-dimethyl-1,2,3,4,8,9-hexahydropyrido[4′,3′:3,4]pyrazolo[1,5-a]pyrazin-10(7H)-one] gave a half-maximal effective concentration (EC50) of 0.051 µM. The compound also registered a 50% cytotoxic concentration (CC50) at 3 days in data set [2] of 31.5 µM. Also, the half-life at 1 μM in data set [3] turned out to be 1.9 h.

In data set [1], `CC(c1cc(F)ccn1)N1C[C@@H](C)n2nc3c(c2C1=O)CN(C(=O)c1ccc(Cl)c(Cl)c1)[C@H](C)C3` (single isomer, unassigned) [Compound 32A] returned a half-maximal effective concentration (EC50) of 0.016 µM. Besides, in data set [2], the CC50 at 3 days is over 50 µM. The half-life at 1 μM in data set [3] stood at 1.68 h.

`CC(c1ccc(NS(C)(=O)=O)cn1)N1C[C@@H](C)n2nc3c(c2C1=O)CN(C(=O)c1ccc(Cl)c(C(F)(F)F)c1)[C@H](C)C3` (single isomer, unassigned) [Compound 33A, N-(6-((R*)-1-((3R,7R)-2-(4-chloro-3-(trifluoromethyl)benzoyl)-3,7-dimethyl-10-oxo-1,3,4,7,8,10-hexahydropyrido[4′,3′:3,4]pyrazolo[1,5-a]pyrazin-9(2H)-yl)ethyl)pyridin-3-yl)methanesulfonamide] showed an EC50 in data set [1] (setting [4]) of 0.036 µM. The same compound yielded a CC50 at 3 days in data set [2] of over 50 µM. Besides, the half-life at 1 μM in data set [3] was over 3 h.

In turn, `CC(c1cnc(C(F)(F)F)nc1)N1C[C@@H](C)n2nc3c(c2C1=O)CN(C(=O)c1ccc(Cl)c(Cl)c1)[C@H](C)C3` (single isomer, unassigned) [Compound 34A, (3R,7R)-2-(3,4-dichlorobenzoyl)-3,7-dimethyl-9-((R*)-1-(2-(trifluoromethyl)pyrimidin-5-yl)ethyl)-1,2,3,4,8,9-hexahydropyrido[4′,3′:3,4]pyrazolo[1,5-a]pyrazin-10(7H)-one] had an EC50 in data set [1] of 0.63 µM. In addition, the CC50 at 3 days in data set [2] is over 50 µM. In addition, in data set [3], the half-life at 1 μM was over 3 h.

For `CC(c1cnc(C(C)(C)O)nc1)N1C[C@@H](C)n2nc3c(c2C1=O)CN(C(=O)c1ccc(Cl)c(C(F)(F)F)c1)[C@H](C)C3` (single isomer, unassigned) [Compound 35A, (3R,7R)-2-(4-chloro-3-(trifluoromethyl)benzoyl)-9-((R*)-1-(2-(2-hydroxypropan-2-yl)pyrimidin-5-yl)ethyl)-3,7-dimethyl-1,2,3,4,8,9-hexahydropyrido[4′,3′:3,4]pyrazolo[1,5-a]pyrazin-10(7H)-one], in data set [1], the EC50 was 0.2 µM. This compound gave a CC50 at 3 days in data set [2] of over 50 µM. Further, the “HLM Metabolism t1/2” value in data set [3] is 0.783 h.

`CC(c1cnc(C(C)(C)O)nc1)N1C[C@@H](C)n2nc3c(c2C1=O)CN(C(=O)c1ccc(Cl)c(Cl)c1)[C@H](C)C3` (single isomer, unassigned) [Compound 36A, (3R,7R)-2-(3,4-Dichlorobenzoyl)-9-((R*)-1-(2-(2-hydroxypropan-2-yl)pyrimidin-5-yl)ethyl)-3,7-dimethyl-1,2,3,4,8,9-hexahydropyrido[4′,3′:3,4]pyrazolo[1,5-a]pyrazin-10(7H)-one]: in data set [1], it took 0.64 µM to reach a half-maximal effect (EC50). The same compound came in with a half-maximal cytotoxic concentration (CC50) at 3 days in data set [2] of over 50 µM. Moreover, the half-life at 1 μM in data set [3] was over 3 h.

The compound `CC(c1cnc(NC2CC2)nc1)N1C[C@@H](C)n2nc3c(c2C1=O)CN(C(=O)c1ccc(Cl)c(Cl)c1)[C@H](C)C3` (single isomer, unassigned) [Compound 37A, (3R,7R)-9-((R*)-1-(2-(cyclopropylamino)pyrimidin-5-yl)ethyl)-2-(3,4-dichlorobenzoyl)-3,7-dimethyl-1,2,3,4,8,9-hexahydropyrido[4′,3′:3,4]pyrazolo[1,5-a]pyrazin-10(7H)-one] returned an EC50 in data set [1] of 0.15 µM. This compound also showed a CC50 at 3 days in data set [2] of over 50 µM. For the same compound, in data set [3], the “HLM Metabolism t1/2” value is over 3 h.

For `CC(c1cnc(N2CCOC[C@@H]2C)nc1)N1C[C@@H](C)n2nc3c(c2C1=O)CN(C(=O)c1ccc(Cl)c(C(F)(F)F)c1)[C@H](C)C3` (single isomer, unassigned) [Compound 38A, (3R,7R)-2-(4-chloro-3-(trifluoromethyl)benzoyl)-3,7-dimethyl-9-((R*)-1-(2-((S)-3-methylmorpholino)pyrimidin-5-yl)ethyl)-1,2,3,4,8,9-hexahydropyrido[4′,3′:3,4]pyrazolo[1,5-a]pyrazin-10(7H)-one], in data set [1], the EC50 was found to be 0.06 µM. The CC50 at 3 days in data set [2] stood at 47 µM. Besides, in data set [3], the half-life at 1 μM turned out to be 1.01 h.

`CC(c1ncccn1)N1C[C@@H](C)n2nc3c(c2C1=O)CN(C(=O)c1ccc(Cl)c(Cl)c1)[C@H](C)C3` (single isomer, unassigned) [Compound 39A, (3R,7R)-2-(3,4-dichlorobenzoyl)-3,7-dimethyl-9-((R*)-1-(pyrimidin-2-yl)ethyl)-1,2,3,4,8,9-hexahydropyrido[4′,3′:3,4]pyrazolo[1,5-a]pyrazin-10(7H)-one] yielded an EC50 in data set [1] of 0.13 µM. In addition, in data set [2], the CC50 at 3 days is over 50 µM. In addition, in data set [3], the half-life at 1 μM was determined as 1.59 h.

Turning to `CC(c1ncc(C(F)(F)F)cn1)N1C[C@@H](C)n2nc3c(c2C1=O)CN(C(=O)c1ccc(Cl)c(Cl)c1)[C@H](C)C3` (single isomer, unassigned) [Compound 40A, (3R,7R)-2-(3,4-dichlorobenzoyl)-3,7-dimethyl-9-((R*)-1-(5-(trifluoromethyl)pyrimidin-2-yl)ethyl)-1,2,3,4,8,9-hexahydropyrido[4′,3′:3,4]pyrazolo[1,5-a]pyrazin-10(7H)-one], the half-maximal effective concentration (EC50) in data set [1] came to 0.054 µM. In data set [2], this compound had a CC50 at 3 days of 22 µM. Moreover, the half-life at 1 μM in data set [3] was over 3 h.

With `CC(c1cnc(C(C)(C)O)cn1)N1C[C@@H](C)n2nc3c(c2C1=O)CN(C(=O)c1ccc(Cl)c(C(F)(F)F)c1)[C@H](C)C3` (single isomer, unassigned) [Compound 41A, (3R,7R)-2-(4-chloro-3-(trifluoromethyl)benzoyl)-9-((R*)-1-(5-(2-hydroxypropan-2-yl)pyrazin-2-yl)ethyl)-3,7-dimethyl-1,2,3,4,8,9-hexahydropyrido[4′,3′:3,4]pyrazolo[1,5-a]pyrazin-10(7H)-one], in data set [1], the EC50 was determined as 0.076 µM. Also, in data set [2], the CC50 at 3 days was over 50 µM. Moreover, the half-life at 1 μM in data set [3] was over 3 h.

On to `CC(c1ccn(CC(F)(F)F)n1)N1C[C@@H](C)n2nc3c(c2C1=O)CN(C(=O)c1ccc(Cl)c(C#N)c1)[C@H](C)C3` (single isomer, unassigned) [Compound 42B, 2-chloro-5-((3R,7R)-3,7-dimethyl-10-oxo-9-((S*)-1-(1-(2,2,2-trifluoroethyl)-1H-pyrazol-3-yl)ethyl)-1,2,3,4,7,8,9,10-octahydropyrido[4′,3′:3,4]pyrazolo[1,5-a]pyrazine-2-carbonyl)benzonitrile], for which the response in data set [1] (setting [4]) was half-maximal at 0.06 µM (EC50). Further, the CC50 at 3 days in data set [2] is over 50 µM. The half-life at 1 μM in data set [3] is over 3 h.

For the compound `Cc1nnc(C(C)N2C[C@@H](C)n3nc4c(c3C2=O)CN(C(=O)c2ccc(Cl)c(Cl)c2)[C@H](C)C4)o1` (single isomer, unassigned) [Compound 43A, (3R,7R)-2-(3,4-dichlorobenzoyl)-3,7-dimethyl-9-((R*)-1-(5-methyl-1,3,4-oxadiazol-2-yl)ethyl)-1,2,3,4,8,9-hexahydropyrido[4′,3′:3,4]pyrazolo[1,5-a]pyrazin-10(7H)-one], the concentration giving a half-maximal response (EC50) in data set [1] worked out at 0.31 µM. The compound further showed a CC50 at 3 days in data set [2] of over 50 µM. Further, in data set [3], the half-life at 1 μM is over 3 h.

In data set [1], `CC(c1nnc(C2CC2)o1)N1C[C@@H](C)n2nc3c(c2C1=O)CN(C(=O)c1ccc(Cl)c(Cl)c1)[C@H](C)C3` (single isomer, unassigned) [Compound 44A, (3R,7R)-9-((R*)-1-(5-cyclopropyl-1,3,4-oxadiazol-2-yl)ethyl)-2-(3,4-dichlorobenzoyl)-3,7-dimethyl-1,2,3,4,8,9-hexahydropyrido[4′,3′:3,4]pyrazolo[1,5-a]pyrazin-10(7H)-one] showed an EC50 of 0.22 µM. Also, the CC50 at 3 days in data set [2] was over 50 µM. The half-life at 1 μM in data set [3] was over 3 h.

`CC(c1cc(F)c(=O)n(C)c1)N1C[C@@H](C)n2nc3c(c2C1=O)CN(C(=O)c1ccc(Cl)c(Cl)c1)[C@H](C)C3` (single isomer, unassigned) [Compound 45B, (3R,7R)-2-(3,4-dichlorobenzoyl)-9-((S*)-1-(5-fluoro-1-methyl-6-oxo-1,6-dihydropyridin-3-yl)ethyl)-3,7-dimethyl-1,2,3,4,8,9-hexahydropyrido[4′,3′:3,4]pyrazolo [1,5-a]pyrazin-10(7H)-one]: in data set [1] (setting [4]), it took 0.027 µM to reach a half-maximal effect (EC50). Moreover, the half-maximal cytotoxic concentration (CC50) at 3 days in data set [2] is over 50 µM. In addition, the half-life at 1 μM in data set [3] was over 3 h.

Turning to `CC(c1cc(F)c(=O)n(C2CC2)c1)N1C[C@@H](C)n2nc3c(c2C1=O)CN(C(=O)c1ccc(Cl)c(Cl)c1)[C@H](C)C3` (single isomer, unassigned) [Compound 46A, (3R,7R)-9-((R*)-1-(1-cyclopropyl-5-fluoro-6-oxo-1,6-dihydropyridin-3-yl)ethyl)-2-(3,4-dichlorobenzoyl)-3,7-dimethyl-1,2,3,4,8,9-hexahydropyrido[4′,3′:3,4]pyrazolo[1,5-a]pyrazin-10(7H)-one], the EC50 in data set [1] is 0.31 µM. Moreover, the CC50 at 3 days in data set [2] is over 50 µM. Moreover, the half-life at 1 μM in data set [3] is over 3 h.
